This note sets out measurements from ChEMBL document CHEMBL4808194, “Design, synthesis and biological evaluation of novel 2,4-disubstituted quinazoline derivatives targeting H1975 cells via EGFR-PI3K signaling pathway” (Bioorg Med Chem, 2021).

In general, IC50 refers to the concentration needed to halve the response being measured. A high value points to lower potency.

Holding throughout (assay): cells
What all share (format): functional, cell-based

One assay concerns MDA-MB-231. Particulars: Homo sapiens, MDA-MB-231, 72 h.
A further assay has as its system MGC-803. The note with it: Homo sapiens, MGC-803, 72 h.
The test system of a further assay is NCI-H1975. Particulars: Homo sapiens, NCI-H1975, 72 h.
A further assay concerns PC-3. Particulars: Homo sapiens, PC-3, 72 h.

Description for MGC-803: Antiproliferative activity against human MGC-803 cells assessed as inhibition of cell growth incubated for 72 hrs by MTT assay
Description for NCI-H1975: Antiproliferative activity against human NCI-H1975 cells assessed as inhibition of cell growth incubated for 72 hrs by MTT assay
Description for PC-3: Antiproliferative activity against human PC-3 cells assessed as inhibition of cell growth incubated for 72 hrs by MTT assay

In the case of `O=C(CSc1nc(Nc2ccccc2)c2ccccc2n1)Nc1cccc(Br)c1`, the IC50 stood at 17.5 µM in the assay on MDA-MB-231, 9.62 µM in the assay with MGC-803, 10.1 µM in the assay on NCI-H1975 and 11.4 µM in the assay with PC-3.
For `O=C(CSc1nc(Nc2ccccc2)c2ccccc2n1)Nc1ccccc1Cl`, in that order: 24.4 µM, 24.8 µM, 9.61 µM and 14.6 µM.
Turning to `O=C(CSc1nc(Nc2ccccc2)c2ccccc2n1)Nc1ccc(Br)cc1`, the IC50 worked out at 11.5 µM with MDA-MB-231, 19.3 µM in the assay with MGC-803, 10.6 µM in the assay on NCI-H1975 and 8.45 µM with PC-3.
Regarding `O=C(CSc1nc(Nc2ccccc2)c2ccccc2n1)Nc1cccc(F)c1`, the IC50 with MDA-MB-231 was > 50 µM; with MGC-803, 12.7 µM; with NCI-H1975, 6.79 µM; in the assay with PC-3, 15.6 µM.
For `C=CC(=O)Nc1cccc(NC(=O)CSc2nc(Nc3cccc(C)c3)c3ccccc3n2)c1`, in that order: 16.8 µM, 20.9 µM, 12.1 µM and 29.2 µM.
